Reference: patent US20040147557A1, “Aryl piperidine derivatives as inducers of ldl-receptor expression” (priority 2003, published 2004)
Read-outs that look alike come from different tables or passages of the source.

What was measured:
fat-fed hamsters = assay: Oral administration to fat-fed hamsters, reduction of VLD/LDL cholesterol and TG plasma levels; format: in vivo, hamster; conditions: hamsters fed 0.2% cholesterol and 10% coconut oil diet, once a day for 3 days, reduction in VLD/LDL cholesterol and TG plasmatic levels
Method: The in vivo profile of the compounds is evaluated by oral administration of the compounds of the invention to fat-fed hamsters. Measurements of VLD/LDL cholesterol and triglycerides upon treatment allow the activity to be determined.
Compounds were prepared for oral administration by milling with 0.5% hydroxypropylmethylcellulose and 5% Tween 80. Hamsters were fed for 2 weeks with a diet containing 0.2% of cholesterol and 10% of coconut oil. Then compounds were administrated once a day for 3 days, from 20 to 0.2 mg/kg. Plasma lipid levels including total cholesterol, VLD/LDL cholesterol, VLD/LDL triglycerides and HDL-cholesterol were determinated after ultracentrifugation (density 1.063 g/ml to separate VLD/LDL fraction and HDL fraction) using the Biomerieux enzymatic kit. Reductions in VLD/LDL cholesterol and TG plasmatic levels were calculated taking solvant treated animals as control and ED50 of each compound was determined.

LDL-r promoter = LDL-r promoter luciferase reporter gene assay in stably transfected HepG2 cells; format: cell-based, human; conditions: HepG2 cells with LDL-r promoter-luciferase construct, 24 hours incubation, RPMI medium with 2% lipoprotein-deficient serum, induction of luciferase activity, read-out: In vitro (IC50)
Method: The ability of the compounds of the invention to induce LDL-r expression by human hepatocytes in vitro is determined using a human hepatocarcinoma cell line, Hep G2, as a model system. A reporter gene assay using the LDL-r promoter in front of the reporter gene Luciferase is used as a primary screen.
HepG2 cells, stably transfected with a construct comprising the LDL-r promoter and the luciferase reporter gene, were seeded at 50.000 cells/well in 96 well plates. After 1 day, cells were incubated with compounds for 24 hours in RPMI medium containing 2% of lipoprotein-deficient serum. Compounds were tested from 10^−6M to 10^−9M. Cell lysates were prepared and the luciferase activity was measured by the luciferase assay system (Promega). Induction of luciferase activity was calculated taking untreated cells as control and ED50 of each compounds was determinated compared to the ED50 of an internal standart.

SMILES: CCc1ccc(C2CCN(CCCCNC(=O)c3ccc(-c4ccc(C#N)cc4)cc3)CC2)c(O)c1 [Example 14, 4′-Cyano-biphenyl-4-carboxylic Acid {4-[4-(2-hydroxy-4-ethyl-phenyl)-piperidin-1-yl]-butyl}-amide]
- melting point: 252 °C

SMILES: Cc1ccc(C2CCN(CCCCNC(=O)c3ccc(-c4ccc(C#N)cc4)cc3)CC2)c(O)c1 [Example 18, 4′-Cyano-biphenyl-4-carboxylic Acid {4-[4-(2-hydroxy-4-methyl-phenyl)-piperidin-1-yl]-butyl}-amide]
- melting point: 184 °C

SMILES: CCc1ccc(C2CCN(CCCCNC(=O)c3ccc(-c4ccc(C(F)(F)F)cc4)cc3)CC2)c(OCC2CC2)c1 [Example 2, 4′-Trifluoromethyl-biphenyl-4-carboxylic Acid [4-[4-(2-cyclopropylmethoxy-4-ethyl-phenyl)-piperidin-1-yl]-butyl]-amide]
- melting point: 247 to 249 °C

SMILES: COc1c(C2CCN(CCCCNC(=O)c3ccc(-c4ccc(C#N)cc4)cc3)CC2)ccc2c1CCCC2 [Example 11, 4′-Cyano-biphenyl-4-carboxylic Acid {4-[4-(1-methoxy-5,6,7,8-tetrahydro-naphtalen-2-yl)-piperidin-1-yl]-butyl}-amide]
- In vivo (ED50) (fat-fed hamsters): 1 mg/kg
- IC50 (LDL-r promoter): 10 nM

SMILES: COc1c(C2CCN(CCCCNC(=O)c3ccc(-c4ccc(Cl)cc4)cc3)CC2)ccc2ccccc12 [Example 3, 4′-Chloro-biphenyl-4-carboxylic Acid {4-[4-(1-methoxy-naphtalen-2-yl)-piperidin-1-yl]-butyl}-amide]
- In vivo (ED50) (fat-fed hamsters): 2 mg/kg
- IC50 (LDL-r promoter): 10 nM

SMILES: CCOc1cc(CC)ccc1C1CCN(CCCCNC(=O)c2ccc(-c3ccc(C#N)cc3)cc2)CC1 [Example 5, 4′-Cyano-biphenyl-4-carboxylic Acid {4-[4-(2-ethoxy-4-ethyl-phenyl)-piperidin-1-yl]-butyl}-amide]
- ED50 (fat-fed hamsters; Mesocricetus auratus, 72 h, read-out: In vivo (ED50)): 2 mg/kg
- melting point: 165 °C
- IC50 (LDL-r promoter; Homo sapiens): 10 nM

SMILES: CCOc1cc(CC)ccc1C1CCN(CCCCNC(=O)c2ccc(-c3ccc(S(C)(=O)=O)cc3)cc2)CC1 [Example 12, 4′-Methanesulfonyl-biphenyl-4-carboxylic Acid {4-[4-(2-ethoxy-4-ethyl-phenyl)-piperidin-1-yl]-butyl}-amide]
- melting point: 179 to 180 °C
